Assay results reported in EPA's ToxValDB 9.5.

Tested on: Rattus norvegicus
Settings: short-term, duration: 28 days, oral, gavage, Sprague-Dawley

**Q.** What does the source list for `O=S(=O)([O-])C(F)(F)C(F)(F)C(F)(F)C(F)(F)C(F)(F)C(F)(F)F.[K+]` [Potassium perfluorohexanesulfonate]?
**A.** NOEL (F, Clinical chemistry_Alanine aminotransferase): 50 mg/kg-day; NOEL (F, Clinical chemistry_Albumin): 50 mg/kg-day; NOEL (F, Clinical chemistry_Albumin/globulin ratio): 50 mg/kg-day; NOEL (F, Clinical chemistry_Alkaline phosphatase): 50 mg/kg-day; NOEL (F, Clinical chemistry_Aspartate aminotransferase): 50 mg/kg-day; NOEL (F, Clinical chemistry_Cholesterol): 50 mg/kg-day; NOEL (F, Clinical chemistry_Direct bilirubin): 50 mg/kg-day; LOEL (F, Clinical chemistry_Free thyroxine): 12.5 mg/kg-day; NOEL (F, Clinical chemistry_Globulin): 50 mg/kg-day; NOEL (F, Clinical chemistry_Sorbitol dehydrogenase): 50 mg/kg-day; NOEL (F, Clinical chemistry_Testosterone): 50 mg/kg-day; NOEL (F, Clinical chemistry_Thyroid stimulating hormone): 50 mg/kg-day; NOEL (F, Clinical chemistry_Total bile acids): 50 mg/kg-day; NOEL (F, Clinical chemistry_Total bilirubin): 50 mg/kg-day; NOEL (F, Clinical chemistry_Total protein): 50 mg/kg-day; LOEL (F, Clinical chemistry_Total thyroxine): 6.25 mg/kg-day; NOEL (F, Clinical chemistry_Total triiodothyronine): 50 mg/kg-day; NOEL (F, Clinical chemistry_Triglycerides): 50 mg/kg-day; NOEL (F, Gene expression_Acox1): 50 mg/kg-day; LOEL (F, Gene expression_Cyp2b1): 3.12 mg/kg-day; LOEL (F, Gene expression_Cyp2b2): 3.12 mg/kg-day; NOEL (F, Gene expression_Cyp4a1): 50 mg/kg-day; NOEL (F, Hematology_Erythrocytes): 50 mg/kg-day; NOEL (F, Hematology_Hematocrit): 50 mg/kg-day; NOEL (F, Hematology_Hemoglobin): 50 mg/kg-day; NOEL (F, Hematology_Leukocytes): 50 mg/kg-day; NOEL (F, Hematology_Reticulocytes): 50 mg/kg-day; NOEL (F, Hematology_S. neutrophils): 50 mg/kg-day; NOEL (F, Nonneoplastic effects_Bone marrow - Hypocellularity): 50 mg/kg-day; NOEL (F, Nonneoplastic effects_Kidney - Papilla, necrosis): 50 mg/kg-day; NOEL (F, Nonneoplastic effects_Liver - Hepatocyte, cytoplasmic alteration): 50 mg/kg-day; NOEL (F, Nonneoplastic effects_Liver - Hepatocyte, hypertrophy): 50 mg/kg-day; NOEL (F, Nonneoplastic effects_Liver - Hepatocyte, vacuolization cytoplasmic): 50 mg/kg-day; NOEL (F, Nonneoplastic effects_Liver - Necrosis): 50 mg/kg-day; LOEL (F, Nonneoplastic effects_Nose - Olfactory epithelium, degeneration): 50 mg/kg-day; LOEL (F, Nonneoplastic effects_Nose - Olfactory epithelium, hyperplasia): 50 mg/kg-day; NOEL (F, Nonneoplastic effects_Nose - Olfactory epithelium, necrosis): 50 mg/kg-day; NOEL (F, Nonneoplastic effects_Spleen - Extramedullary hematopoiesis, decreased): 50 mg/kg-day; NOEL (F, Nonneoplastic effects_Stomach, forestomach - Epithelium, hyperplasia): 50 mg/kg-day; NOEL (F, Nonneoplastic effects_Thymus - Atrophy): 50 mg/kg-day; NOEL (F, Organ weights_Heart - Absolute): 50 mg/kg-day; NOEL (F, Organ weights_Heart - Relative): 50 mg/kg-day; LOEL (F, Organ weights_Liver - Absolute): 3.12 mg/kg-day; LOEL (F, Organ weights_Liver - Relative): 3.12 mg/kg-day; NOEL (F, Organ weights_Lung - Absolute): 50 mg/kg-day; NOEL (F, Organ weights_Lung - Relative): 50 mg/kg-day; LOEL (F, Organ weights_R. adrenal gland - Absolute): 12.5 mg/kg-day; LOEL (F, Organ weights_R. adrenal gland - Relative): 50 mg/kg-day; NOEL (F, Organ weights_R. kidney - Absolute): 50 mg/kg-day; NOEL (F, Organ weights_R. kidney - Relative): 50 mg/kg-day; NOEL (F, Organ weights_Spleen - Absolute): 50 mg/kg-day; NOEL (F, Organ weights_Spleen - Relative): 50 mg/kg-day; NOEL (F, Organ weights_Thymus - Absolute): 50 mg/kg-day; NOEL (F, Organ weights_Thymus - Relative): 50 mg/kg-day; NOEL (F, Reproductive toxicity_Altered estrous cyclicity): 50 mg/kg-day; NOEL (F, Survival rates): 50 mg/kg-day; NOEL (F, body weight): 50 mg/kg-day; NOEL (M, Clinical chemistry_Alanine aminotransferase): 10 mg/kg-day; NOEL (M, Clinical chemistry_Albumin): 10 mg/kg-day; LOEL (M, Clinical chemistry_Albumin/globulin ratio): 10 mg/kg-day; NOEL (M, Clinical chemistry_Alkaline phosphatase): 10 mg/kg-day; NOEL (M, Clinical chemistry_Aspartate aminotransferase): 10 mg/kg-day; LOEL (M, Clinical chemistry_Cholesterol): 1.25 mg/kg-day; NOEL (M, Clinical chemistry_Direct bilirubin): 10 mg/kg-day; LOEL (M, Clinical chemistry_Free thyroxine): 0.625 mg/kg-day; LOEL (M, Clinical chemistry_Globulin): 10 mg/kg-day; NOEL (M, Clinical chemistry_Sorbitol dehydrogenase): 10 mg/kg-day; NOEL (M, Clinical chemistry_Testosterone): 10 mg/kg-day; NOEL (M, Clinical chemistry_Thyroid stimulating hormone): 10 mg/kg-day; NOEL (M, Clinical chemistry_Total bile acids): 10 mg/kg-day; NOEL (M, Clinical chemistry_Total bilirubin): 10 mg/kg-day; NOEL (M, Clinical chemistry_Total protein): 10 mg/kg-day; LOEL (M, Clinical chemistry_Total thyroxine): 0.625 mg/kg-day; LOEL (M, Clinical chemistry_Total triiodothyronine): 0.625 mg/kg-day; LOEL (M, Clinical chemistry_Triglycerides): 2.5 mg/kg-day; LOEL (M, Gene expression_Acox1): 5 mg/kg-day; LOEL (M, Gene expression_Acyl-CoA oxidase): 5 mg/kg-day; LOEL (M, Gene expression_Cyp2b1): 1.25 mg/kg-day; LOEL (M, Gene expression_Cyp2b2): 0.625 mg/kg-day; LOEL (M, Gene expression_Cyp4a1): 1.25 mg/kg-day; NOEL (M, Hematology_Erythrocytes): 10 mg/kg-day; NOEL (M, Hematology_Hematocrit): 10 mg/kg-day; NOEL (M, Hematology_Hemoglobin): 10 mg/kg-day; NOEL (M, Hematology_Leukocytes): 10 mg/kg-day; LOEL (M, Hematology_Reticulocytes): 1.25 mg/kg-day; NOEL (M, Hematology_S. neutrophils): 10 mg/kg-day; NOEL (M, Nonneoplastic effects_Bone marrow - Hypocellularity): 10 mg/kg-day; NOEL (M, Nonneoplastic effects_Kidney - Papilla, necrosis): 10 mg/kg-day; NOEL (M, Nonneoplastic effects_Liver - Hepatocyte, cytoplasmic alteration): 10 mg/kg-day; LOEL (M, Nonneoplastic effects_Liver - Hepatocyte, hypertrophy): 2.5 mg/kg-day; NOEL (M, Nonneoplastic effects_Liver - Hepatocyte, vacuolization cytoplasmic): 10 mg/kg-day; NOEL (M, Nonneoplastic effects_Liver - Necrosis): 10 mg/kg-day; NOEL (M, Nonneoplastic effects_Nose - Olfactory epithelium, degeneration): 10 mg/kg-day; NOEL (M, Nonneoplastic effects_Nose - Olfactory epithelium, hyperplasia): 10 mg/kg-day; NOEL (M, Nonneoplastic effects_Nose - Olfactory epithelium, inflammation, suppurative): 10 mg/kg-day; NOEL (M, Nonneoplastic effects_Nose - Olfactory epithelium, necrosis): 10 mg/kg-day; NOEL (M, Nonneoplastic effects_Spleen - Extramedullary hematopoiesis, decreased): 10 mg/kg-day; NOEL (M, Nonneoplastic effects_Stomach, forestomach - Epithelium, hyperplasia): 10 mg/kg-day; NOEL (M, Nonneoplastic effects_Thymus - Atrophy): 10 mg/kg-day; NOEL (M, Organ weights_Heart - Absolute): 10 mg/kg-day; NOEL (M, Organ weights_Heart - Relative): 10 mg/kg-day; LOEL (M, Organ weights_Liver - Absolute): 1.25 mg/kg-day; LOEL (M, Organ weights_Liver - Relative): 1.25 mg/kg-day; NOEL (M, Organ weights_Lung - Absolute): 10 mg/kg-day; NOEL (M, Organ weights_Lung - Relative): 10 mg/kg-day; LOEL (M, Organ weights_R. adrenal gland - Absolute): 5 mg/kg-day; LOEL (M, Organ weights_R. adrenal gland - Relative): 2.5 mg/kg-day; NOEL (M, Organ weights_R. kidney - Absolute): 10 mg/kg-day; LOEL (M, Organ weights_R. kidney - Relative): 10 mg/kg-day; NOEL (M, Organ weights_Spleen - Absolute): 10 mg/kg-day; NOEL (M, Organ weights_Spleen - Relative): 10 mg/kg-day; NOEL (M, Organ weights_Thymus - Absolute): 10 mg/kg-day; NOEL (M, Organ weights_Thymus - Relative): 10 mg/kg-day; NOEL (M, Reproductive toxicity_Altered sperm parameters): 10 mg/kg-day; NOEL (M, Survival rates): 10 mg/kg-day; NOEL (M, body weight): 10 mg/kg-day
